One may read the TD50 as the dose at which the toxic effect under study appears in half of the subjects. Read a high TD50 as harm only at a large dose. The term ED50 denotes the midpoint of the dose-response relation.

Results on ten compounds are retold here after ChEMBL document CHEMBL1149163, “Application of predictive QSAR models to database mining: identification and experimental validation of novel anticonvulsant compounds” (J Med Chem, 2004).

Series [1] can be described thus: Neurologic toxicity from rotarod test in mice. Format: organism-based. The note with it: mouse, in vivo. (In the rotarod test animals must keep their balance on a rotating rod.)
A short description of series [2]: Neurologic toxicity from rotarod test in rats, perorally. Format: organism-based. The note with it: rat, in vivo, po.
In series [3] the test system is Mus musculus. As to the kind of experiment: Compound was evaluated for anticonvulsant activity by maximal electroshock seizure test, intraperitoneally in mice. The class given is functional. The settings on record: ip. A general note: In the maximal electroshock model the usual endpoint is tonic extension of the hind limbs.
The species named for series [4] is Rattus norvegicus. As to the kind of experiment: Compound was evaluated for anticonvulsant activity by maximal electroshock seizure test, perorally in rats. Format: functional. The note with it: po.
Series [5] is described as follows: Neurologic toxicity from rotarod test in mice; Value ranges from >100 to <300. The class given is organism-based. The note with it: mouse, in vivo.
The test system of series [6] is Mus musculus. The series can be described thus: Compound was evaluated for anticonvulsant activity by maximal electroshock seizure test, intraperitoneally in mice; Value ranges from >100 to <300. Format: functional. The note with it: ip.
The species entered for series [7] is Rattus norvegicus. The series can be described thus: Compound was evaluated for anticonvulsant activity by maximal electroshock seizure test, perorally in rats; Value ranges from >100 […]. Format: functional. The settings on record: po.
Series [8] can be described thus: Neurologic toxicity from rotarod test in rats, perorally; Value ranges from >100 to <300. The class given is organism-based. The settings on record: rat, in vivo, po.
Series [9] has as its system Mus musculus. The series can be described thus: Compound was evaluated for anticonvulsant activity by maximal electroshock seizure test, intraperitoneally in mice; Value ranges from >100 […]. The class given is functional. The note with it: ip.
Series [10] is described as follows: Neurologic toxicity from rotarod test in mice; Value ranges from >100 […]. The class given is organism-based. The note with it: mouse, in vivo.

The structures appear in SMILES notation. Some results are limits rather than exact numbers.

As to `CCNCC(=O)Nc1c(C)cccc1C`, the TD50 is 50 mg/kg in series [1] and more than 500 mg/kg in [2]. In addition, the ED50 came to 18 mg/kg in the series with Mus musculus [3] and 11 mg/kg in the series filed under Rattus norvegicus [4].

As to `Cc1cccc(NC(=O)N(C)C)c1`, the TD50 in [2] was more than 30 mg/kg; in series [5], less than 300 mg/kg.

For `CON(C)C(=O)C(C)NC(=O)OCc1ccccc1` (configuration not stated), the values for the ED50 with Mus musculus [6] and in the series filed under Rattus norvegicus [4] were less than 300 mg/kg and approximately 30 mg/kg, respectively. In addition, the results for the TD50 in [2] and in series [5] were more than 30 mg/kg and less than 300 mg/kg, respectively.

Turning to `CON(C)C(=O)CNC(=O)OCc1ccccc1`, the TD50 in series [1] is 140 mg/kg; in series [2], more than 30 mg/kg.

`CNC(=O)CNC(=O)OCc1ccccc1`: the results for the ED50 in the series listed under Rattus norvegicus [7] and in the series on Mus musculus [9] were less than 30 mg/kg and more than 100 mg/kg, respectively. In addition, the values for the TD50 in series [8] and in [5] were more than 100 mg/kg and less than 300 mg/kg, respectively.

As for `CN(C)C(=O)CNC(=O)OCc1ccccc1`, the TD50 in series [1] is 130 mg/kg; in [2], more than 30 mg/kg.

Turning to `CCNC(=O)CNC(=O)OCc1ccccc1`, the TD50 in [2] was more than 500 mg/kg; in series [10] it was less than 300 mg/kg.

In turn, `COCC(NC(C)=O)C(=O)N(C)Cc1ccccc1` (configuration not stated) gave an ED50 in the series on Mus musculus [6] of less than 300 mg/kg.

In the case of `CCN(CC)C(=O)CNC(=O)OCc1ccccc1`, the TD50 in series [1] is 91 mg/kg; in [2], more than 30 mg/kg.

`CCN(CC)C(=O)C(C)NC(=O)OCc1ccccc1` (configuration not stated): the results for the TD50 in series [1] and in series [2] were 130 mg/kg and more than 30 mg/kg, respectively. In addition, the values for the ED50 in the series on Mus musculus [3] and in the series listed under Rattus norvegicus [4] were 74 mg/kg and less than 30 mg/kg, respectively.
